Experimental data taken from the supplement of paper PMC12513837.

Compound: CC(=O)N1CCc2c(c(N3CCCc4cc(-c5cnn(C)c5)c(C(F)F)cc43)nn2C2CCC(CN3CCN(c4ccc5c(c4)C(=O)N(C4CCC(=O)NC4=O)C5=O)CC3)CC2)C1 [CBPD-409]
Experiment: AUC of viability dose-response curve (relative to vehicle, 8 doses up to 10 µM) (fraction); higher = less sensitive (more viable); extreme values may be limits of the assay
Method: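 PRISM multiplexed pooled barcoded cell line viability screen at the Broad Institute, 887 cancer cell lines treated with CBPD-409 (p300/CBP PROTAC degrader) at 8 concentrations in threefold dilution, top dose 10 µM. The read-out is the area under the dose-response curve of relative viability versus vehicle (n=3). AUC < 0.3 is called strongly sensitive and AUC > 0.8 resistant.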

Test System	AUC of viability dose-response curve
PA1_OVARY	1
SNU201_CENTRAL_NERVOUS_SYSTEM	0.382
HS852T_SKIN	1
NCIH1703_LUNG	0.78
NCIH661_LUNG	0.567
EFM192A_BREAST	0.645
CAL33_UPPER_AERODIGESTIVE_TRACT	0.694
SBC5_LUNG	0.687
SMSCTR_SOFT_TISSUE	0.847
SH10TC_STOMACH	0.626
K562_HAEMATOPOIETIC_AND_LYMPHOID_TISSUE	1
PECAPJ41CLONED2_UPPER_AERODIGESTIVE_TRACT	0.662
HUPT4_PANCREAS	0.784
KMS18_HAEMATOPOIETIC_AND_LYMPHOID_TISSUE	0.466
SKMES1_LUNG	0.848
KARPAS299_HAEMATOPOIETIC_AND_LYMPHOID_TISSUE	1
LS180_LARGE_INTESTINE	0.961
SNU1544_LARGE_INTESTINE	0.806
KD_SOFT_TISSUE	0.299
STM9101_SOFT_TISSUE	1

Test System	AUC of viability dose-response curve
PACADD119_PANCREAS	0.991
SSP25_BILIARY_TRACT	0.801
MM127_SKIN	1
OC316_OVARY	0.486
RKO_LARGE_INTESTINE	0.854
RBE_BILIARY_TRACT	1
NP5_CENTRAL_NERVOUS_SYSTEM	0.488
HT1080_SOFT_TISSUE	1
SKN_ENDOMETRIUM	0.778
HT3_CERVIX	0.711
MFE280_ENDOMETRIUM	0.581
SNU407_LARGE_INTESTINE	0.502
TE5_OESOPHAGUS	0.998
OZ_BILIARY_TRACT	0.851
MKN7_STOMACH	0.517
HMC18_BREAST	0.932
FADU_UPPER_AERODIGESTIVE_TRACT	0.844
LNZ308_CENTRAL_NERVOUS_SYSTEM	0.998
BCPAP_THYROID	0.885
KHM1B_HAEMATOPOIETIC_AND_LYMPHOID_TISSUE	0.665

Test System	AUC of viability dose-response curve
SUSA_TESTIS	0.578
SKLMS1_SOFT_TISSUE	0.829
HKGZCC_BILIARY_TRACT	1
C8166_HAEMATOPOIETIC_AND_LYMPHOID_TISSUE	0.546
COGAR359_SOFT_TISSUE	1
NCIH1793_LUNG	0.838
OVCAR8_OVARY	0.486
JHH5_LIVER	0.614
NCIH1944_LUNG	1
SKGT4_OESOPHAGUS	0.575
A101D_SKIN	1
SNU899_UPPER_AERODIGESTIVE_TRACT	0.668
UMUC13_URINARY_TRACT	0.199
KYSE410_OESOPHAGUS	0.901
NZOV9_OVARY	1
MELJUSO_SKIN	1
MEL290_UVEA	0.688
HEL9217_HAEMATOPOIETIC_AND_LYMPHOID_TISSUE	0.229
SNUC4_LARGE_INTESTINE	0.595
